Test results as given in patent publication US20230313311A1, “METHOD OF ASSESSING THE CIRCADIAN RHYTHM OF A SUBJECT HAVING CANCER AND/OR ASSESSING A TIMING OF ADMINISTRATION OF A MEDICAMENT TO SAID SUBJECT HAVING CANCER” (priority 2020, published 2023).

Key:
[1] = system: AsPC1 cells; details: SMAD4 deficient AsPC1; treated 17 h, 20 h, 23 h after synchronization; cited from earlier work
[2] = system: Panc1 cells; details: cited from earlier work
[3] = system: SW480 colorectal cancer cells; details: cited from earlier work; for effect of drug administration depending on time: control cells; for effect of drug administration depending on time after BMAL1 downregulation: core-clock gene BMAL1 downregulated
[4] = system: BMAL1-Promoter activity in HCT116, SW480 and SW620 colon cancer cells; assay: BMAL1-Promoter activity, live-cell bioluminescence recording over five days; assay type: cell-based, human; details: treated vs control, n=3
Protocol: Here, the three cell lines were treated with several anti-cancer drugs, including WZB117, Oxaliplatin and cisplatin, and the rhythmic promoter activity of BMAL1 was measured over several days (FIG. 13). […] More specifically, HCT116, SW480 and SW620 colon cancer cells were treated with Oxaliplatin, Cisplatin and WZB117. BMAL1-Promoter activity was measured using live-cell bioluminescence recording over five days. Shown is one representative plot for the control (black) and the treated (grey dashed) condition, n=3.
BMAL1-Promoter activity was measured using live-cell bioluminescence recording over five days. Shown is one representative plot for the control (black) and the treated (grey) condition, n=3.

[5] = system: mice; details: among six mouse categories; treatment tolerability as output; cited from earlier work
[6] = system: core-clock downregulated (shBMAL1, shNR1D1 and shPER2) HCT116 cancer cell lines; assay: Cell proliferation measured using confluence after time-dependent treatment; assay type: cell-based, human; details: 10 μM; treated at 18 h, 21 h and 24 h after cell synchronization; confluence over five days; n=3
Protocol: FIG. 15 illustrates how cell proliferation for an exemplified for a human cancer cell type is affected by Cisplatin treatment in a time-dependent manner;
In addition to the BMAL1 rhythmicity data, preliminary data were obtained pointing towards the differential regulation of cancer cell proliferation based on the timing of drug administration. […] Cell proliferation was measured using confluence over five days. n=3.

SMILES	effect of drug administration depending on time [3]	effect of drug administration depending on time after BMAL1 downregulation [3]	effect of drug application on rhythmicity of BMAL1 promoter activity [4]	further results
Nc1ccn([C@@H]2O[C@H](CO)[C@@H](O)C2(F)F)c(=O)n1 [gemcitabine]				response to time-dependent treatment [1]: this effect is not observed; differential drug response to different treatment time points after gene downregulation ([2]; Panc1 with downregulation of NR1D1 or SMAD4): the differential drug response to different treatment time points is impaired; response to time-dependent treatment ([2]; SMAD4 proficient Panc1, treated 17 h, 20 h, 23 h after synchronization): more resistant to treatment
O=C(Oc1cccc(F)c1OC(=O)c1cccc(O)c1)c1cccc(O)c1 [WZB117]	time-dependent	this effect is lost	altered the rhythmicity of the core-clock gene BMAL1	
CCc1c2c(nc3ccc(OC(=O)N4CCC(N5CCCCC5)CC4)cc13)-c1cc3c(c(=O)n1C2)COC(=O)[C@]3(O)CC [Irinotecan]			alters BMAL1 rhythmic promoter activity	variation of optimal circadian timing along the 24 hours [5]: up to 8 hour
O=C1[O][Pt]2([NH][C@@H]3CCCC[C@H]3[NH]2)[O]C1=O [Oxaliplatin]	time-dependent	this effect is lost	altered the rhythmicity of the core-clock gene BMAL1	
N.N.[Cl][Pt][Cl] [Cisplatin]			altered the rhythmicity of the core-clock gene BMAL1	cell proliferation depending on timing of drug administration [6]: reduced cell proliferation for shNR1D1 and shPER2 cells, when cells were treated at 24 h after synchronization compared to the other time-points
